The subject of one test is OVCAR-3 xenograft. In words: OVCAR-3 ovarian cancer xenograft. Type of test: in vivo. The protocol: The xenograft model of the OVCAR-3 human ovarian cancer cell line that present functional LHRH receptors was used in this study. OVCAR-3 represents a slow growing xenograft model and secretes the tumor marker (cancer antigen 125, or CA125). It's secretion can be used as treatment response and is a measure of drug activity.
In brief, Nu/Nu female mice, inbred strain, age 5 weeks (Harlan-Sprague Dawley) were injected subcutaneously with a NIH:OVCAR-3 cells/Matrigel suspension (4.6×10^6 cells/mouse). Treatment was started on day 33 after tumor cell injection when the tumors were established and continued on days 41 and 47. The doses for the 3 weekly injections were 0.02, 0.2 and 2 mg/kg body weight, given as a single bolus intravenous injection via lateral tail vein administered once a week for three weeks on days 33, 41 and 47. Necropsies were conducted on day 52. Data are presented as mean SEM. Arrows show dosing.
A group of 9 tumor bearing mice was sacrificed on day 33 and served as baseline group. All mice were necropsied 51-52 days after tumor cell injection. Tumor volumes and bodyweights were recorded twice weekly during the study, as well as overall veterinarian examination of mice was conducted.
Primary tumors, liver, kidney, pancreas, heart, lung, and spleen were collected, fixed in formalin and prepared for histological evaluation. Tumor weights were measured at necropsy, part of the tumors were frozen at −80° C. for LH/CG and LHRH receptor assay determination.
As a biomarker for drug activity, CA125 was determined in serum, collected from each individual mouse at necropsy using a Enzyme Linked Immunoassay for quantitative determination of ovarian cancer antigen CA125 (Assay kit Genway, Biotech, Inc. San Diego, Calif., Catalog #40-052-115009, # BC-1013 according to the manufacturer).
LHRH receptor levels were assessed from formalin fixed tumors. Quantitative immunoperoxidase image analysis was conducted with the Ventana Image Analysis System (VIAS) adjunctive computer assisted image analysis system functionally connected to an interactive microscope (Axio Imager). The quantitative analysis was conducted with the program for quantification of Her2/neu receptor that included morphometric and colorimetric analysis. Receptor status results were reported as percentage of cells showing positive staining of the LHRH receptors under the following criteria: 0 non-immunoreactive, 1+: 1-25% positive, 2+: 26 50% positive, 3+: 51-75% positive cells.

In the next test the test system is MDA-MB-435S. As to conditions: cited from earlier work.
A further test deals with PC-3 xenograft. In words: PC-3 prostate cancer xenograft, FSH-Phor18 fusion constructs. Type of test: in vivo, mice. The note with it: compared to vehicle. The protocol:
This example describes in vivo studies in a mouse xenograft model of human prostate cancer (PC-3) with the three types and doses of (3-FSH-Phor18-fusion constructs (hFSH-β-33-53; hFSH-β-81-95 and hFSH-β-90-95).
Male Nu/Nu mice were injected subcutaneously with a PC-3/Matrigel suspension (1×10^6 cells). Mice were allocated into treatment groups of 8 mice per group on day 21 after tumor cell injection. Treatment started on day 1 and continued on day 5, 8, 12, 15 and 19. […] The doses for twice weekly injections were given as a single bolus injection.

As for `N.N.[Cl][Pt][Cl]` [Cisplatinum, reference compound], the “Tumor weights at necropsy” value in the test on OVCAR-3 xenograft (Phor18-LHRH: 2 and 0.2 mg/kg vs saline and Phor18, p<0.05) is reported as “not effective”. For the same compound, the Tumor volume result with OVCAR-3 xenograft (during treatment) was “no reduction”.

As for `COc1cccc2c1C(=O)c1c(O)c3c(c(O)c1C2=O)C[C@@](O)(C(=O)CO)C[C@@H]3O[C@H]1C[C@H](N)[C@H](O)[C@H](C)O1` [doxorubicin], in the test with MDA-MB-435S, the “time to destroy human breast cancer cells in vitro” value is 4 h.

As to “CYTRDLVYKDPARPKIQKTCT [hFSH-β-33-53, unconjugated FSH beta chain fragment]”, in the test on PC-3 xenograft, the “Tumor volume at necropsy” value is listed as “did not affect tumor volumes or tumor weights”.

In the case of “DSTDCT (Follitropin subunit beta; UniProt P01225 108-113, looked up, fragment) [hFSH-β-90-95, unconjugated FSH beta chain fragment]”, in the test on PC-3 xenograft, the “Tumor volume at necropsy” value is “did not affect tumor volumes or tumor weights”.

Consider “QCHCGKCDSDSTDCT [hFSH-β-81-95, unconjugated FSH beta chain fragment]”, for which the “Tumor volume at necropsy” value in the test with PC-3 xenograft is on record as “did not affect tumor volumes or tumor weights”.
